Test results: article PMC8212739 (Clinical and Translational Science, 2021)

Key:
[1] = Stability of glucuronidated diclofenac in maintenance medium at 37°C; assay type: physicochemical; details: 50 µM
PHHs in the liver MPS = experiment: Drug metabolism and phase II metabolites in the liver MPS
[2] = cited from earlier work
PHHs in liver MPS [3] = experiment: LDH production, hepatotoxicant sensitivity, liver MPS; assay type: cell-based; details: Homo sapiens, 48 h, read-out: EC50, LDH production
PHHs in liver MPS [4] = experiment: Albumin production, hepatotoxicant sensitivity, liver MPS; assay type: cell-based; details: Homo sapiens, 48 h, read-out: EC50, albumin secretion
PHHs in spheroids [5] = experiment: LDH production, hepatotoxicant sensitivity, spheroids; assay type: cell-based; details: Homo sapiens, 48 h, read-out: EC50, LDH production
PHHs in spheroids [6] = experiment: Albumin production, hepatotoxicant sensitivity, spheroids; assay type: cell-based; details: Homo sapiens, 48 h, read-out: EC50, albumin secretion
[7] = test system: PHHs in sandwich cultures; experiment: LDH production, hepatotoxicant sensitivity, sandwich cultures; assay type: cell-based; details: Homo sapiens, 48 h, read-out: EC50, LDH production
[8] = test system: PHHs in sandwich cultures; experiment: Albumin production, hepatotoxicant sensitivity, sandwich cultures; assay type: cell-based; details: Homo sapiens, 48 h, read-out: EC50, albumin secretion
PHHs in spheroids [9] = details: spheroids vs liver MPS
[10] = test system: PHHs in sandwich cultures; details: sandwich cultures vs liver MPS
CYP3A4 [11] = experiment: in vitro; details: human, primary human hepatocytes (PHHs) cultured in liver MPS
CYP3A4 [12] = experiment: in vitro; details: human, primary human hepatocytes (PHHs) cultured as 3D spheroids
CYP3A4 [13] = experiment: in vitro; details: human, primary human hepatocytes (PHHs) in 2D sandwich cultures
in vitro [14] = details: human, primary human hepatocytes (PHHs) cultured as 3D spheroids
in vitro [15] = details: human, primary human hepatocytes (PHHs) in 2D sandwich cultures

O=C(Cc1ccccc1Nc1c(Cl)cccc1Cl)O[C@@H]1O[C@H](C(=O)O)[C@@H](O)[C@H](O)[C@H]1O [glucuronidated diclofenac, diclofenac glucuronide]
Time of incubation to become unstable in solution [1]: ≤ 2 h | Detection in the MPS medium (PHHs in the liver MPS; after 48 h, diclofenac dosed): not detected

C[C@H]1COc2c(N3CCN(C)CC3)c(F)cc3c(=O)c(C(=O)O)cn1c23 [levofloxacin]
Hepatotoxicity [2]: does not cause hepatotoxicity

Cc1c(C)c2c(c(C)c1O)CCC(C)(COc1ccc(CC3SC(=O)NC3=O)cc1)O2 (stereo not drawn) [Troglitazone, troglitazone]
EC50 (PHHs in liver MPS [3]): 407 µM | EC50 (PHHs in liver MPS [4]): 34.6 µM | EC50 (PHHs in spheroids [5]): 94.2 µM | EC50 (PHHs in spheroids [6]): 51.9 µM | EC50 [7]: 77.7 µM | EC50 [8]: 2.6 µM | R, Spearman correlation of CYP3A4 response relative to liver MPS (PHHs in spheroids [9]): 0.80 | R, Spearman correlation of CYP3A4 response relative to liver MPS [10]: 0.77 | EC50 at 48 h (CYP3A4 [11]): […] | EC50 at 48 h (CYP3A4 [12]): […] | EC50 at 48 h (CYP3A4 [13]): […] | EC50 at 2 days (in vitro [14]): 67.1 µM | EC50 at 2 days (in vitro [15]): 35.1 µM | Extent of metabolism of parent in liver MPS medium (PHHs in the liver MPS; 50 and 100 µM, 48 h of incubation): almost completely metabolized

O=C(O)Cc1ccccc1Nc1c(Cl)cccc1Cl [diclofenac]
Concentration in liver MPS culture medium over time (PHHs in the liver MPS; 50 µM, 4, 8, 24 and 48 hours): decrease over time

CC/C(=C(\c1ccccc1)c1ccc(OCCN(C)C)cc1)c1ccccc1 [Tamoxifen, tamoxifen]
EC50 at 2 days (in vitro [15]): 23.8 µM

C[C@H]1O[C@@H](O[C@H]2[C@@H](O)C[C@H](O[C@H]3[C@@H](O)C[C@H](O[C@H]4CC[C@@]5(C)[C@H](CC[C@@H]6[C@@H]5C[C@@H](O)[C@]5(C)[C@@H](C7=CC(=O)OC7)CC[C@]65O)C4)O[C@@H]3C)O[C@@H]2C)C[C@H](O)[C@@H]1O [Digoxin, digoxin]
EC50 (PHHs in liver MPS [3]): 146 µM | EC50 (PHHs in liver MPS [4]): 41.6 µM | EC50 (PHHs in spheroids [5]): 8.1 µM | EC50 (PHHs in spheroids [6]): 5.4 µM | EC50 [7]: 102 µM | EC50 [8]: 157 µM | R, Spearman correlation of CYP3A4 response relative to liver MPS (PHHs in spheroids [9]): −0.04 | R, Spearman correlation of CYP3A4 response relative to liver MPS [10]: […] | EC50 at 48 h (CYP3A4 [11]): […] | EC50 at 48 h (CYP3A4 [12]): […] | EC50 at 48 h (CYP3A4 [13]): […] | EC50 at 2 days (in vitro [14]): 6.4 µM | EC50 at 2 days (in vitro [15]): 122 µM

N[C@@H]1[C@H]2CN(c3nc4c(cc3F)c(=O)c(C(=O)O)cn4-c3ccc(F)cc3F)C[C@@H]12 [trovafloxacin]
Hepatotoxicity in humans [2]: induces idiosyncratic hepatotoxicity
